According to patent publication US20220396825A1, “METHOD FOR PREPARING […]” (KAO CORPORATION, priority 2019, published 2022):
Several values for one entry are separate records, joined by “and”; a condition that tells them apart may be missing. Identical values can stand only once.

Assays:
Assay type in all cases: cell-based, Salmonella typhimurium
[1] = system: genome of TA100 strain; test: Mutation frequency in 3-MC-exposed library by sequencing utilizing information on complementary strands
[2] = system: genome of TA100 strain; test: as above; remark: listed apart in the source
Description: The flows of a sequencing method and mutation analysis used in Comparative Examples and Examples described later will be described in the following. Fundamentally, the highly accurate sequencing method utilizing information on complementary strands, which is described in Patent Literature 4, was used. Specifically, a library was subjected to sequencing, and read pairs expected to be derived from the same DNA fragment were collected. Then, a consensus read sequence (a consensus read sequence considering complementary strands) was generated among read sequences expected to be derived from two complementary strands (hereinafter, referred to as strand A and strand B) of the DNA fragment. Acquired consensus read sequences considering complementary strands were used for mutation analysis.
(§1) DMSO-exposed cells were prepared with the same procedure as in 1) of Comparative Example 1, and TA100 strain was exposed to 3-methylcholanthrene (3-MC) with the same procedure. In DMSO, 3-MC (produced by Sigma-Aldrich Co. LLC., CASRN.56-49-5) was dissolved. Into test tubes, 100 μL of the 3-MC solution, 500 μL of S9 mix (produced by IEDA TRADING Corporation), and 100 μL of the pre-culture solution for TA100 strain were added (amount of 3-MC: 1000 μg/tube), and the resultants were subjected to shaking culture at 100 rpm in a water bath at 37° C. for 20 minutes (3-MC-exposed cells). Cells were collected from the bacterial suspensions, and DNA was extracted with the same procedure as in 1) of Comparative Example 1.
From DNA derived from the DMSO-exposed cells or the 3-MC-exposed cells, a plurality of samples each of which was to give 60 ng or 100 ng of DNA were prepared, and the samples were each fragmented into pieces having a length of approximately 350 bp on average by using a DNA Shearing System ME220. The fragments of each sample were divided into two groups. For the group without nuclease treatment (nontreatment group), the DNA fragments were suspended in Resuspension buffer attached to the TruSeq for End Repair in the subsequent step in accordance with the recommended protocol to afford 60 μL of eluate. For the group with nuclease treatment (treatment group), the DNA fragments were purified through steps of adsorbing on Sample Purification Beads attached to the TruSeq (hereinafter, also expressed as beads, simply), washing twice with 80% ethanol water, and drying in accordance with the recommended protocol. In the subsequent elution operation, the beads were suspended in distilled water (DW, produced by NIPPON GENE CO., LTD.) to afford 30 μL of DNA eluate containing DNA fragments.
To the DNA eluate obtained in I), 4 μL of 10× Reaction Buffer attached to the S1 nuclease was added. The S1 nuclease was appropriately diluted with 1× Reaction Buffer, 1, 3, 10, 30, 100, or 300 U thereof was added to the DNA eluate, and DW was added thereto to a total volume of 40 μL. For the sample to which 1000 U of the S1 nuclease was to be added, 4.6 μL of 10× Reaction Buffer was added to 30 μL of the DNA eluate obtained by beads purification, and 12 μL of the stock solution of the S1 nuclease was added thereto to a total volume of 46 μL. Each reaction solution with the S1 nuclease was incubated at 30° C. for 30 minutes. Assuming that the whole amount of DNA (60 ng) present at the beginning of library preparation existed in each reaction solution, the numbers of units of the S1 nuclease per 1 ng of DNA were 0.02, 0.05, 0.17, 0.50, 1.67, 5.00, and 16.7 U/ng. For inactivation of the S1 nuclease in each reaction solution, 3 μL of 0.5 M EDTA (pH 8.0) (produced by NIPPON GENE CO., LTD.) was added, and the resultant was incubated at 70° C. for 10 minutes. […]

[3] = system: TA100 strain; test: Ames test (pre-incubation method), number of revertant colonies; conditions: S9 mix; for Number of revertants: individual plates 1-3; for Number of revertants, Mean: mean of three plates
Procedure: Exposure of the TA100 cell line to DMSO was performed in accordance with the Ames pre-incubation method (Mol. Mech. Mutagen., 455:29-60, 2000, Sci. Rep. 8 (1):9583). TA100 strain was seeded in 2 mL of Nutrient Broth No. 2 (produced by Oxoid Limited), and subjected to shaking culture at 37° C. and 180 rpm for 4 hours to afford pre-culture solution with an OD660 value of 1.0 or higher. Into test tubes, 100 μL of DMSO, 500 μL of S9 mix (produced by IEDA TRADING Corporation), and 100 μL of the pre-culture solution were added, and the resultants were subjected to shaking culture at 100 rpm in a water bath at 37° C. for 20 minutes (DMSO-exposed cells). After shaking culture for 20 minutes, the test tubes each containing a culture solution were taken out of the water bath, and 50 μL of each culture solution was added to 2 mL of Nutrient Broth solution (containing 18.5% S9 mix) aliquoted in advance, and the resultant was further cultured in an incubator at 37° C. and 180 rpm for 14 hours. After the culture, the bacterial suspensions were collected and centrifuged at 7,500 rpm for 5 minutes, and the supernatants were removed to collect the cells. From the DMSO-exposed cells, total DNA was collected by using a DNeasy Blood & Tissue Kit (produced by QIAGEN) in accordance with the recommended protocol. The double-stranded DNA concentration of each DNA sample obtained was measured by using a Qubit3.0 Fluorometer (produced by Thermo Fisher Scientific) with a Qubit™ dsDNA BR Assay Kit attached thereto.
as §1, with “([…]),” for “(amount of 3-MC: 1000 μg/tube),”
For the Ames test, a bacterial suspension exposed to 3-MC under the above-described conditions was prepared. Thereto, 2 mL of top agar (containing 1% NaCl, 1% agar, 0.05 mM histidine, and 0.05 mM biotin) warmed to 45° C. was added and the resultant was stirred by using a Vortex, and poured onto a minimal glucose agar medium (Tesmedia® AN; produced by Oriental Yeast Co., Ltd.) to form a layer. The resulting plate was subjected to culturing at 37° C. for 48 hours, and the number of colonies observed was counted.

In the case of Cc1ccc2cc3c(ccc4ccccc43)c3c2c1CC3 [3-MC, 3-methylcholanthrene], the “GC → TA mutation frequency increase rate (3MC/DMSO control), SN ratio” value ([1]; library treated with RecJf 0.03 U/ng) is reported as 1.48, the “GC → TA mutation frequency increase rate (3MC/DMSO control), SN ratio” value ([1]; library treated with RecJf 0.10 U/ng) is reported as 2.14 and the “GC → TA mutation frequency increase rate (3MC/DMSO control), SN ratio” value ([1]; library treated with RecJf 0.30 U/ng) is reported as 1.68. For the same molecule, the “SN ratio determined from mean values of GC→TA mutation frequency” value ([2]; 3-MC vs DMSO control, without MBN treatment, each n=3) was 1.61, the “mean value of mutation frequency for GC→TA” value ([2]; 3-MC-exposed, without MBN treatment, n=3) was 0.176×10^−6 and the “GC → TA mutation frequency increase rate (3MC/DMSO control), SN ratio” value ([2]; MBN experiment, MBN 0 U/ng (nontreatment)) was 2.04. For the same molecule, the “GC → TA mutation frequency increase rate (3MC/DMSO control), SN ratio” value ([2]; RecJf experiment, RecJf 0 U/ng (nontreatment)) was 2.04, the “GC → TA mutation frequency increase rate (3MC/DMSO control), SN ratio” value ([2]; library S1 nuclease 0 U/ng (nontreatment)) was 1.27 and the “GC → TA mutation frequency increase rate (3MC/DMSO control), SN ratio” value ([2]; library treated with MBN 0.03 U/ng) was 1.60. The “GC → TA mutation frequency increase rate (3MC/DMSO control), SN ratio” value ([2]; library treated with MBN 0.10 U/ng) was 1.81, the “GC → TA mutation frequency increase rate (3MC/DMSO control), SN ratio” value ([2]; library treated with MBN 0.30 U/ng) was 1.34 and the “GC → TA mutation frequency increase rate (3MC/DMSO control), SN ratio” value ([2]; library treated with MBN 1.00 U/ng) was 1.92. The “GC → TA mutation frequency increase rate (3MC/DMSO control), SN ratio” value ([2]; library treated with RecJf 1.00 U/ng) was 1.94, the “GC → TA mutation frequency increase rate (3MC/DMSO control), SN ratio” value ([2]; library treated with S1 nuclease 0.02 U/ng) was 2.1 and the “GC → TA mutation frequency increase rate (3MC/DMSO control), SN ratio” value ([2]; library treated with S1 nuclease 0.05 U/ng) was 1.97. The “GC → TA mutation frequency increase rate (3MC/DMSO control), SN ratio” value ([2]; library treated with S1 nuclease 0.17 U/ng) was 2.72, the “GC → TA mutation frequency increase rate (3MC/DMSO control), SN ratio” value ([2]; library treated with S1 nuclease 0.50 U/ng) was 3.75 and the “GC → TA mutation frequency increase rate (3MC/DMSO control), SN ratio” value ([2]; library treated with S1 nuclease 1.67 U/ng) was 3.35. For the same molecule, the “GC → TA mutation frequency increase rate (3MC/DMSO control), SN ratio” value ([2]; library treated with S1 nuclease 5.00 U/ng) was 1.63, the “GC → TA mutation frequency increase rate (3MC/DMSO control), SN ratio” value ([2]; library treated with S1 nuclease 16.7 U/ng) was 3.59 and the Number of revertants ([3]; 3-MC 10 μg/plate) was 887 and 881 and 1279. The “Number of revertants, Mean” value ([3]; 3-MC 10 μg/plate) was 1016, the Number of revertants ([3]; 3-MC 20 μg/plate) was 1539 and 1484 and 1509 and the “Number of revertants, Mean” value ([3]; 3-MC 20 μg/plate) was 1511. For the same molecule, the Number of revertants ([3]; 3-MC 100 μg/plate) was 1519 and 1539 and 1797 and the “Number of revertants, Mean” value ([3]; 3-MC 100 μg/plate) was 1618.
